“Also recorded” adds a separate entry of the source. Read-outs that look alike come from different tables or passages of the source. Ends that are not written are not given here.
Key:
Human chondrocytes = assay: Alginate-based cartilage growth model, type II collagen production; assay type: cell-based
Method: Next, the alginate-based cell system (cartilage growth model) was used to determine whether PTH dosing could stimulate chondrocytes to produce cartilage. […] Type II collagen is a major component of the extracellular matrix of nasal cartilage and therefore was used as a molecular marker for cartilage growth in this assay.
The cell-containing alginate beads were incubated in the presence of various test solutions for 12 days at 37° C., 5% CO2. After the incubation, the alginate beads were processed using an extraction method in order to quantify the production of type II collagen.
The effect of PTH on Type II collagen production was studied. The positive control in this study was re-differentiation media and the negative control was growth media. PTH was tested in a range of 20 μg to 200 μg as FORSTEO or a formulation containing the formulation enhancers (sample 1, above).
In addition, type II collagen production was assessed in the presence of a formulation containing 5 μg of insulin-like growth factor I (IGF-I). IGF-I is known to be a potent promoter of cartilage type-II collagen expression in chondrocytes and thus is an ideal positive control for the assay.

[1] = system: normal, human-derived tracheal/bronchial epithelial cells (EpiAirway™ Tissue Model); assay: Transepithelial electrical resistance (TER) in MatTek EpiAirway tissue model; assay type: cell-based; details: 100 μl formulation on apical surface, 1 h at 37° C., TER before and after
Method: The effect of various “Generally Regarded As Safe” (GRAS) permeation enhancers was measured in a MatTek cell model. Three GRAS permeation enhancers (EDTA, ethanol, Tween 80) were evaluated individually or in combination with one another. Sorbitol was used as a tonicifier to adjust the osmolarity of formulations to 220 mOsm/kg whenever applicable. The formulation pH was adjusted to 4. The permeation enhancer combination of 45 mg/ml M-β-CD, 1 mg/ml DDPC, and 1 mg/ml EDTA at pH 4.5 served as the positive control. The formulation contains sorbitol only was used as the negative control. Each formulation is evaluated in the presence and absence of preservative. […]
(§1) Each tissue insert is placed in an individual well containing 1 ml media. […] Transepithelial electrical resistance (TER) is measured before and after the 1-h incubation. Following the incubation, the cell inserts are analyzed for cell viability via the mitochondrial dehydrogenase (MDH) assay.
TER measurements are accomplished using the Endohm-12 Tissue Resistance Measurement Chamber connected to the EVOM Epithelial Volt-ohmmeter (World Precision Instruments, Sarasota, Fla.) with the electrode leads. […] The background resistance is measured with 1.5 ml Media in the Endohm tissue chamber and 300 μl Media in the blank insert. […] Resistance is expressed as (resistance measured−blank)×0.6 cm^2. […]

[2] = system: normal, human-derived tracheal/bronchial epithelial cells (EpiAirway™ Tissue Model); assay: Cell viability, MTT assay, EpiAirway tissue inserts; assay type: cell-based; details: after 1 h incubation with formulation
Method: (§2) The effect of various “Generally Regarded As Safe” (GRAS) permeation enhancers was measured in a MatTek cell model. Three GRAS permeation enhancers (EDTA, ethanol, Tween 80) were evaluated individually or in combination with one another. Sorbitol was used as a tonicifier to adjust the osmolarity of formulations to 220 mOsm/kg whenever applicable. The formulation pH was adjusted to 4. The permeation enhancer combination of 45 mg/ml M-β-CD, 1 mg/ml DDPC, and 1 mg/ml EDTA at pH 4.5 served as the positive control. The formulation contains sorbitol only was used as the negative control. Each formulation is evaluated in the presence and absence of preservative. For all formulations, sodium benzoate is used as the preservative.
(§3) The cell line MatTek Corp. (Ashland, Mass.) are normal, human-derived tracheal/bronchial epithelial cells (EpiAirway™ Tissue Model). Cells are cultured for 24-48 hours before use to produce a tissue insert.
as §1
Cell viability is assessed using the MTT assay (MTT-100, MatTek kit). […] The optical density of the samples was measured at 550 nm on a plate reader.

[3] = system: normal, human-derived tracheal/bronchial epithelial cells (EpiAirway™ Tissue Model); assay: Cytotoxicity, LDH assay, EpiAirway tissue inserts; assay type: cell-based; details: after 1 h incubation with formulation
Method: The effect of various “Generally Regarded As Safe” (GRAS) permeation enhancers was measured in a MatTek cell model. Three GRAS permeation enhancers (EDTA, ethanol, Tween 80) were evaluated individually or in combination with one another. Sorbitol was used as a tonicifier to adjust the osmolarity of formulations to 220 mOsm/kg whenever applicable. The formulation pH was adjusted to 4. The permeation enhancer combination of 45 mg/ml M-β-CD, 1 mg/ml DDPC, and 1 mg/ml EDTA at pH 4.5 served as the positive control. The formulation contains sorbitol only was used as the negative control. Each formulation is evaluated in the presence and absence of preservative. For all formulations, sodium benzoate is used as the preservative. […]
as §1
The amount of cell death is assayed by measuring the loss of lactate dehydrogenase (LDH) from the cells using a CytoTox 96 Cytoxicity Assay Kit (Promega Corp., Madison, Wis.). LDH analysis of the apical media is evaluated. […] Following incubation, 50 μl of stop solution is added to each well and the plates read on an optical density plate reader at 490 nm.

[4] = after feeding to rats; cited from earlier work
[5] = anesthetized rats, cited from earlier work
[6] = system: normal, human-derived tracheal/bronchial epithelial cells (EpiAirway™ Tissue Model); assay type: in vitro ADME
Method: as §2, §3
as §1, with “media. On the apical surface of the inserts, 100 μl of test formulation is applied, and the sample is shaken for 1 h at 37° C.” for “media.”, “assay. […]” for “assay.”

[7] = system: human chondrocyte cell monolayer; assay: Human chondrocyte monolayer proliferation (MTT); assay type: cell-based; details: MTT at t=0 and after 4 days at 37° C./5% CO2
Description: A human chondrocyte cell monolayer model was employed to examine cell proliferation in the presence of PTH in a simple formulation (FORSTEO) or a formulation containing PTH and the formulation enhancers (sample 1, above). These were compared to a positive control (media containing antibiotics, insulin, TGF-beta and IGF-1) and negative control (media devoid of any cell growth components). It was desired to understand if the presence of PTH could stimulate chondrocyte growth. To this end, the above mentioned formulations and controls were applied to the apical side of the chondrocyte monolayers, and the MTT assay (Example 3) was conducted at t=0 and then after 4 days incubation at 37° C./5% CO2.

[8] = 100 μg/day by injection, preliminary results; cited from earlier work
hematopoietic stem cells = details: mice, Calvi et al. 2003; cited from earlier work
ciliary motility = details: pyo compound without obvious ultrastructural lesions; phenazine derivative with some membrane disruption; cited from earlier work

calcitonin (CGNLSTCMLGTYTQDFNKFHTFPQTAIGVGAP; ends and bridges not checked; cysteine pairing not given here; UniProt P01258 85-116, looked up)
type II collagen production (Human chondrocytes; 20 μg or 200 μg calcitonin): no effect

Triton X
TER reduction [1]: significant TER reduction
cell viability (MTT assay) [2]: significant reduction of cell viability
cytotoxicity (LDH assay) [3]: significant cytotoxicity

Phaseolus vulgaris hemagglutinin
oral bioavailability [4]: more than 10%

insulin-like growth factor I [IGF-I]
type II collagen production (Human chondrocytes; 5 μg IGF-I, positive control): greater than 1.2 pg per culture

human growth hormone
nasal bioavailability ([5]; with N-acetyl-L-cysteine (ACS)): 12.2%
nasal bioavailability ([5]; without N-acetyl-L-cysteine): 7.5%

CC[C@H](C)[C@H](NC(=O)[C@H](CCC(=O)O)NC(=O)[C@H](CO)NC(=O)[C@@H](NC(=O)[C@@H](N)CO)C(C)C)C(=O)N[C@@H](CCC(N)=O)C(=O)N[C@@H](CC(C)C)C(=O)N[C@@H](CCSC)C(=O)N[C@@H](Cc1cnc[nH]1)C(=O)N[C@@H](CC(N)=O)C(=O)N[C@@H](CC(C)C)C(=O)NCC(=O)N[C@@H](CCCCN)C(=O)N[C@@H](Cc1cnc[nH]1)C(=O)N[C@@H](CC(C)C)C(=O)N[C@@H](CC(N)=O)C(=O)N[C@@H](CO)C(=O)N[C@@H](CCSC)C(=O)N[C@@H](CCC(=O)O)C(=O)N[C@@H](CCCN=C(N)N)C(=O)N[C@H](C(=O)N[C@@H](CCC(=O)O)C(=O)N[C@@H](Cc1c[nH]c2ccccc12)C(=O)N[C@@H](CC(C)C)C(=O)N[C@@H](CCCN=C(N)N)C(=O)N[C@@H](CCCCN)C(=O)N[C@@H](CCCCN)C(=O)N[C@@H](CC(C)C)C(=O)N[C@@H](CCC(N)=O)C(=O)N[C@@H](CC(=O)O)C(=O)N[C@H](C(=O)N[C@@H](Cc1cnc[nH]1)C(=O)N[C@@H](CC(N)=O)C(=O)N[C@@H](Cc1ccccc1)C(=O)O)C(C)C)C(C)C [Teriparatide, teriparatide]
impact of preservative on Teriparatide permeation [6]: no significant impact
chondrocyte proliferation [7]: does not promote growth of chondrocytes
type II collagen production (Human chondrocytes; 20 μg of PTH, citrate buffer or with permeation enhancers, 12 days): did not induce a substantial production of type II collagen
type II collagen production (Human chondrocytes; high concentration of PTH (200 μg) in a simple formulation, 12 days, listed as PTH): a significant increase in type II collagen was observed; also recorded: modest amounts of type II collagen production
type II collagen production (Human chondrocytes; high concentration of PTH in the presence of permeation enhancers, 12 days, listed as PTH): essentially no production of type II collagen; also recorded: did not induce any cartilage growth
success rates in bone marrow transplant patients [8]: improves success rates
number of functional HSCs and survival after bone marrow transplantation (hematopoietic stem cells): increases the number of functional HSCs and survival after bone marrow transplantation

2-alkyl-4-hydroxyquinolines [pyo compound]
concentration producing ciliostasis / inhibiting ciliary motility (ciliary motility): 50 µg/mL
